{
  "source": "ChEMBL document CHEMBL1201862",
  "about": "“PubChem BioAssay data set” (2004)",
  "key": {"Estrogen receptor beta": {"biological_target": "Estrogen receptor beta (Homo sapiens, UniProt Q92731)", "sequence (Q92731 whole entry)": "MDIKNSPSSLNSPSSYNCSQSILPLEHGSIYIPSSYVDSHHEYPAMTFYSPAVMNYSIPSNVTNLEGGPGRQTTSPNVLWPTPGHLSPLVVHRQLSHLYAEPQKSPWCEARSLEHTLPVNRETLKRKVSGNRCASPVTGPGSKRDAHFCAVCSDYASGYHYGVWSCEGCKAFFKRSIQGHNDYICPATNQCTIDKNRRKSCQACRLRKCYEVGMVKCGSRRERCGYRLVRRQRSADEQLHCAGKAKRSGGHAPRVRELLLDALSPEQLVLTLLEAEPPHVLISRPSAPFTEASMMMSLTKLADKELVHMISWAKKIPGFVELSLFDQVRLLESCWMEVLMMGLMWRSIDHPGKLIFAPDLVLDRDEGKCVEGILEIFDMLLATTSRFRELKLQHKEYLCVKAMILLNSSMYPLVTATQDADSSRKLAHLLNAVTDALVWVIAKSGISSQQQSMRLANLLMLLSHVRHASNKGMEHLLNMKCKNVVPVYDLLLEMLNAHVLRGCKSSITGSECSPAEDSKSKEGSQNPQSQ", "assay": "blockers of SRC-3 recruitment to ERβ – biochemical, ELISA, streptavidin-HRP readout, orthogonal assay, confirmation (AID 1060)"}, "Prothrombin": {"biological_target": "Prothrombin (Homo sapiens, UniProt P00734)", "assay": "Thrombin 1536 HTS Dose Response Confirmation. [Related pubchem assays: 1046 (Thrombin 1536 HTS; hits were confirmed in this assay)]", "format": "functional"}, "Coagulation factor XII": {"biological_target": "T1, Coagulation factor XII (Homo sapiens, UniProt P00748)", "T1 sequence (P00748 whole entry)": "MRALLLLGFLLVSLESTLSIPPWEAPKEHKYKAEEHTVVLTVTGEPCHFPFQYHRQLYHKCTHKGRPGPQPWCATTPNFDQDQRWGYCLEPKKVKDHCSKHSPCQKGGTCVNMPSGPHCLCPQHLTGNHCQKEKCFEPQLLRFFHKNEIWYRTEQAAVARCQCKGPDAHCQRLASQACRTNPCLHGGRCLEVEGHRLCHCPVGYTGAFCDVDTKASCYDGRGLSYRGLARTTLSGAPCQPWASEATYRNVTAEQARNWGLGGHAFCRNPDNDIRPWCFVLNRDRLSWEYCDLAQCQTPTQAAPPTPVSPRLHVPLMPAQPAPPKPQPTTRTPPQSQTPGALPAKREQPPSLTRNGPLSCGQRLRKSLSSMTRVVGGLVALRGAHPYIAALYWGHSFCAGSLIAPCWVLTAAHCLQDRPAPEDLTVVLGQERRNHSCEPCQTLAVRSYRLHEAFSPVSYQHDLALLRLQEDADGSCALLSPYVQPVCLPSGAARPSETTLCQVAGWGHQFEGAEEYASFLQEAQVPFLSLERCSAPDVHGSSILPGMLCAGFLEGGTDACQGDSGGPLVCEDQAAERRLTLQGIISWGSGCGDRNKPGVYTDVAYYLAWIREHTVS", "format": "functional"}, "[1]": {"assay": "M. tuberculosis H37Rv growth inhibitors, H37Rv strain (AID 1626)", "format": "functional"}, "[2]": {"assay": "A cytotoxicity screen of small molecule inhibitors of the PhoP region in Salmonella typhi identified in the primary screen. [Related pubchem assays: 1850, 1864, 1985 ]", "format": "functional"}, "BJ [3]": {"test_system": "BJ", "assay": "BJ-TERT fibroblast viability loss – cell-based, RAS-independent, luminescence, dose response (AID 1933)", "format": "functional", "conditions": "Homo sapiens"}, "BJ [4]": {"test_system": "BJ", "assay": "cells", "format": "functional, cell-based", "conditions": "Homo sapiens"}, "BJ [5]": {"test_system": "BJ", "assay": "BJ-TERT-LT-ST fibroblast viability loss – cell-based, RAS-independent, luminescence, dose response (AID 1935);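 further: BJ fibroblasts immortalized with TERT plus LT and ST oncogenes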", "format": "functional", "conditions": "Homo sapiens"}, "[6]": {"assay": "DRD fibroblast viability loss – cell-based, non-viral oncogenic, luminescence, dose response (AID 1934)", "format": "functional", "conditions": "Homo sapiens"}, "[7]": {"assay": "Luminescence Cell-Based Dose Retest to Confirm Inhibitors of Cancer Stem Cells. [Related pubchem assays (depositor defined):AID2717, AID2721]", "format": "functional", "conditions": "Homo sapiens"}, "BJ [8]": {"test_system": "BJ", "assay": "growth inhibition of engineered Ras-driven BJ cells – cell-based, alamar blue fluorescence, cherrypicked samples, dose response (AID 2631)", "format": "functional", "conditions": "Homo sapiens"}, "Vero": {"test_system": "Vero", "assay": "cells", "format": "functional", "conditions": "Chlorocebus sabaeus"}, "[9]": {"biological_target": "Disintegrin and metalloproteinase domain-containing protein 17 (Homo sapiens, UniProt P78536)", "sequence (P78536 whole entry, the tested form may be a part)": "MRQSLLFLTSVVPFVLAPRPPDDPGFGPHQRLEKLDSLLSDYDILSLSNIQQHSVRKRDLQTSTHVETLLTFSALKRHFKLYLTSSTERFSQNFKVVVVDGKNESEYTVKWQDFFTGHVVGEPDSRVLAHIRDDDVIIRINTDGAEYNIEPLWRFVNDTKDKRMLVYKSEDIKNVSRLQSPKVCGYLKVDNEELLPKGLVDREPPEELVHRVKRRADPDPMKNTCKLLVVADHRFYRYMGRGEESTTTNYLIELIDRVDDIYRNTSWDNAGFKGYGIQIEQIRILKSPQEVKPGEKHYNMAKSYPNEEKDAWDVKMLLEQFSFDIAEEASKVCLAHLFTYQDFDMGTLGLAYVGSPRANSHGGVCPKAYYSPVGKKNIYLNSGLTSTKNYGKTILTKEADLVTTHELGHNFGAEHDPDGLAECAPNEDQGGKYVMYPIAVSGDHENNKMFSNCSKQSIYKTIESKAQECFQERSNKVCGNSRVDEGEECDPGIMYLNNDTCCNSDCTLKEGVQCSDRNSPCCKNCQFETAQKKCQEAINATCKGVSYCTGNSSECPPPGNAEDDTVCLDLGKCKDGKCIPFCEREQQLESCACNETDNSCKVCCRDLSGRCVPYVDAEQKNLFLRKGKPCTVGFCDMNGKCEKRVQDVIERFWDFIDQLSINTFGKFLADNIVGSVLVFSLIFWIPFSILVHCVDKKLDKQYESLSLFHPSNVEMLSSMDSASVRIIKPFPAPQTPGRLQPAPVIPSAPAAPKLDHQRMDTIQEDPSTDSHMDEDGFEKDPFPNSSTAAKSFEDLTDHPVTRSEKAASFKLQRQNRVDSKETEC", "assay": "exosite inhibitors of ADAM17, dose response, biochemical (AID 743260)"}, "[10]": {"assay": "inhibition of ADAM10 peptide cleavage – biochemical, FRET peptide substrate, recombinant human ADAM10, selectivity assay for ADAM17 exosite inhibitor project, dose response (AID 743259)"}, "[11]": {"assay": "Trypanosoma cruzi growth suppression in host cells – NIH3T3 host cells, beta-gal luminescence, confirmation (AID 2044);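 further: luminescent beta-galactosidase reporter signal from transgenic T. cruzi replicating inside host cells; inhibitors lower the luminescence signal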", "format": "functional, cell-based"}, "[12]": {"assay": "NIH3T3 cell viability loss – ATP luminescence, mouse fibroblasts, counter-screen, dose response (AID 2010);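 further: cells exposed to compound for about 90 hours before reading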", "format": "functional, cell-based"}, "[13]": {"assay": "growth inhibition of yeast DHODH-expressing 3D7 parasites – SYBR Green, dry powder samples, dose response (AID 1159570);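 further: parasite growth measured after 72 hours of compound exposure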", "format": "functional, cell-based"}, "[14]": {"assay": "P. falciparum Dd2 growth inhibitors, dose response, SYBR Green, cherry-picked samples (AID 1159567)", "format": "functional, cell-based"}, "[15]": {"assay": "Dd2 malaria parasite growth inhibition potency – SYBR Green, dry powder samples, dose response (AID 1159566);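 further: potency for growth inhibition with lower SYBR green DNA signal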", "format": "functional, cell-based"}, "[16]": {"assay": "growth inhibition of PfATP4-mutant resistant parasites – NITD609-resistant line, SYBR Green, dry powder, dose response (AID 1159571);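 further: parasites synchronized at ring stage by sorbitol before testing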", "format": "functional, cell-based"}, "[17]": {"biological_target": "T2, Mannose-6-phosphate isomerase (Homo sapiens, UniProt P34949)", "T2 sequence (P34949 whole entry)": "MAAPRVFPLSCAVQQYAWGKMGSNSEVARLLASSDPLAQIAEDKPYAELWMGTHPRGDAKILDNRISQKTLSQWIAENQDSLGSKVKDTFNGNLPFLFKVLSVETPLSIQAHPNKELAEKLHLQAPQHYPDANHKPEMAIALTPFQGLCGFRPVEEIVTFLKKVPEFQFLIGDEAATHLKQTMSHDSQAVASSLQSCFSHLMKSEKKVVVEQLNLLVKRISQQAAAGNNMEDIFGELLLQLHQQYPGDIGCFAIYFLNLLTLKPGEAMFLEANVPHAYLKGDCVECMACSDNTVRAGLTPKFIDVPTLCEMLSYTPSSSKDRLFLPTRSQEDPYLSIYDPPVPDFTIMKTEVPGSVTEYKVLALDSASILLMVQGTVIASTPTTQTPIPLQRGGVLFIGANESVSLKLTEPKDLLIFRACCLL", "assay": "phosphomannose isomerase inhibition – biochemical, fluorescence intensity, confirmation (AID 1535)"}, "Phosphomannomutase 2": {"biological_target": "T3, Phosphomannomutase 2 (Homo sapiens, UniProt O15305)", "T3 sequence (O15305 whole entry)": "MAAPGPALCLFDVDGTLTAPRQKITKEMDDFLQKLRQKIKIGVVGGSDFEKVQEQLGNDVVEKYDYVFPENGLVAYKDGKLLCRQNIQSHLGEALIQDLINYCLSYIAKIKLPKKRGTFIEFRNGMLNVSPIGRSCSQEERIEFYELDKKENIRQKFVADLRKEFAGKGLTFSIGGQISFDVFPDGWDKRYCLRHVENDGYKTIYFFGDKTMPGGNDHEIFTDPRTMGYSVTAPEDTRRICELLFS", "assay": "Counter screen SAR assay for PMM2 inhibitors via a fluorescence intensity assay. [Related pubchem assays (depositor defined):AID1545, AID1574]"}, "[18]": {"biological_target": "DNA dC->dU-editing enzyme APOBEC-3A (Homo sapiens, UniProt P31941)", "sequence (P31941 whole entry)": "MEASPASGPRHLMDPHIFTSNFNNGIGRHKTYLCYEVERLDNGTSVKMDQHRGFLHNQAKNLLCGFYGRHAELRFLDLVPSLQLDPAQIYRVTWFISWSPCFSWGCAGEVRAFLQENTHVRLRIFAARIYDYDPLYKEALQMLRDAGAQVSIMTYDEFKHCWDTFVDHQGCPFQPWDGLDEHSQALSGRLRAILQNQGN", "assay": "A3A deaminase inhibition for selectivity – biochemical, dose response (AID 504722)", "format": "functional"}, "[19]": {"biological_target": "DNA dC->dU-editing enzyme APOBEC-3G (Homo sapiens, UniProt Q9HC16)", "sequence (Q9HC16 whole entry)": "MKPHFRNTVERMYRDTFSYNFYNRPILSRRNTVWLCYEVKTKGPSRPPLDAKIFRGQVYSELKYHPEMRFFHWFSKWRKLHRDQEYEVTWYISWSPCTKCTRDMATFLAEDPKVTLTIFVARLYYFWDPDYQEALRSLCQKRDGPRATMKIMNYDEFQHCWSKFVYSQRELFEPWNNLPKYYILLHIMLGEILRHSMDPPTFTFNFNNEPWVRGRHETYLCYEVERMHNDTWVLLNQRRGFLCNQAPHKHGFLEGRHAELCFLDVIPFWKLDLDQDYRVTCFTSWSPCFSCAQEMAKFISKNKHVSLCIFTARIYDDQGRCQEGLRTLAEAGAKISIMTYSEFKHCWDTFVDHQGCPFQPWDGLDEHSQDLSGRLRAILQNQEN", "assay": "Dose Response confirmation of small molecule APOBEC3G DNA Deaminase Inhibitors via a fluorescence-based single-stranded DNA deaminase assay. [Related pubchem assays (depositor defined):AID493012, AID493028]", "format": "functional"}},
  "note": "The source made the active and inactive calls.",
  "data": [
    {"smiles": "CC1(C)C(=O)Nc2ccccc2N1C(=O)COc1ccc(S(=O)(=O)N2CCOCC2)cc1Cl", "values": [
      {"measurement": "IC50", "setting": "Estrogen receptor beta", "value": "< 0.023 µM (not active)"}
    ]},
    {"smiles": "CN1C(=O)/C(=N/OC(=O)c2ccccc2)c2ccccc21", "values": [
      {"measurement": "IC50", "setting": "Prothrombin", "value": "5.05 µM (active)"},
      {"measurement": "IC50", "setting": "Coagulation factor XII", "value": "4.93 µM (active)"}
    ]},
    {"smiles": "CSc1nc(-c2ccco2)nn1C(=O)c1ccccc1", "values": [
      {"measurement": "IC50", "setting": "Prothrombin", "value": "0.082 µM (active)"}
    ]},
    {"smiles": "COc1cccc2cc(C(=O)NCC3CCCO3)c(=O)oc12", "note": "(stereo unspecified)", "values": [
      {"measurement": "IC50", "setting": "Prothrombin", "value": "> 50 µM (not active)"}
    ]},
    {"smiles": "COc1ccc(/N=C2\\C(=O)Nc3ccccc32)cc1", "values": [
      {"measurement": "IC50", "setting": "[1]", "value": "> 100 µM (active)"}
    ]},
    {"smiles": "Cc1cc(=O)oc2c(CN(C)Cc3ccccc3)c(O)ccc12", "values": [
      {"measurement": "EC50", "setting": "[2]", "value": "> 50 µM (active)"}
    ]},
    {"smiles": "CCOC(=O)c1cn[nH]c1N", "values": [
      {"measurement": "IC50", "setting": "[1]", "value": "> 100 µM (active)"}
    ]},
    {"smiles": "CCCN1C/C(=C/c2ccc3c(c2)OCO3)C(=O)/C(=C/c2ccc3c(c2)OCO3)C1", "values": [
      {"measurement": "EC50", "setting": "BJ [3]", "value": "4.04 µM (inconclusive)"},
      {"measurement": "EC50", "setting": "BJ [4]", "value": "14.9 µM (inconclusive)"},
      {"measurement": "EC50", "setting": "BJ [5]", "value": "2.94 µM (inconclusive)"},
      {"measurement": "EC50", "setting": "[6]", "value": "4.99 µM (active)"},
      {"measurement": "AC50", "setting": "[7]", "value": "0.766 µM (active)"},
      {"measurement": "EC50", "setting": "BJ [8]", "value": "0.582 µM (inconclusive)"},
      {"measurement": "CC50", "setting": "Vero", "value": "9.59 µM (active)"},
      {"measurement": "IC50", "setting": "[9]", "value": "19.6 µM (inactive)"},
      {"measurement": "IC50", "setting": "[10]", "value": "> 69.5 µM (inactive)"}
    ]},
    {"smiles": "Cc1cccc(N(C(=O)CCC(=O)Nc2ccccn2)C(C(=O)NC(C)C)c2ccc(O)cc2)c1", "note": "(stereo unspecified)", "values": [
      {"measurement": "EC50", "setting": "[2]", "value": "> 50 µM (active)"}
    ]},
    {"smiles": "Cc1cccc(C(=N)NOC(=O)N2CCOCC2)c1", "values": [
      {"measurement": "EC50", "setting": "[11]", "value": "2.63 µM (active)"},
      {"measurement": "EC50", "setting": "[12]", "value": "> 60 µM (not active)"},
      {"measurement": "IC50", "setting": "[9]", "value": "> 69.5 µM (inactive)"},
      {"measurement": "IC50", "setting": "[10]", "value": "> 69.5 µM (inactive)"}
    ]},
    {"smiles": "COc1cc(OC)cc(-c2c[nH]nc2N)c1", "values": [
      {"measurement": "IC50", "setting": "[10]", "value": "> 69.5 µM (inactive)"}
    ]},
    {"smiles": "O=C(c1ccc(F)cc1)N1CC(=O)N2[C@H](C1)[C@@H](c1ccc(-c3cccnc3)cc1)[C@@H]2CO", "values": [
      {"measurement": "AC50", "setting": "[13]", "value": "0.786 µM (active)"},
      {"measurement": "AC50", "setting": "[14]", "value": "0.439 µM (active)"},
      {"measurement": "AC50", "setting": "[15]", "value": "0.42 µM (active)"},
      {"measurement": "AC50", "setting": "[16]", "value": "0.542 µM (active)"}
    ]},
    {"smiles": "O=[N+]([O-])c1c(Br)cccc1/N=c1\\ssnc1Cl", "values": [
      {"measurement": "IC50", "setting": "[17]", "value": "7.37 µM (active)"},
      {"measurement": "IC50", "setting": "Phosphomannomutase 2", "value": "4.8 µM (active)"}
    ]},
    {"smiles": "COc1ccc(/C=N/n2c(S)nnc2-c2cc(C)[nH]n2)cc1", "values": [
      {"measurement": "IC50", "setting": "[18]", "value": "> 100 µM (inactive)"},
      {"measurement": "IC50", "setting": "[19]", "value": "3.83 µM (active)"}
    ]}
  ]
}
